Consider 3 compounds from patent US10835533B2, “1 -((3S,4R)-4-(3-fluorophenyl)-1-(2-methoxyethyl)pyrrolidin-3-yl)-3-(4-methyl-3-(2-methylpyrimidin-5-yl)-1-phenyl-1H-pyrazol-5-yl)urea as a TrkA kinase inhibitor” (Array BioPharma Inc., priority 2014, dated 2020).

Series [1] is described as follows: IV clearance, 1 mg/kg IV, monkey. The format is in vivo. Particulars: for in vivo/in vitro correction factor: microsomal CLh divided by IV CL; for clearance: plasma, 1 mg/kg IV. As to the method:
(§1) In Table 1, the predicted human IV clearance values were calculated from compound concentration-versus-time data in plasma collected from pre-clinical species (mouse, rat, dog and monkey) following 1 mg/kg intravenous (IV) doses. Concentrations of compound in plasma were measured by LC-MS (liquid chromatography-mass spectrometry). AUCinf values (Area under the plasma concentration-time curve for a dosing interval from time 0 extrapolated to infinity) for individual Cp/t curves (concentration of the drug in plasma at any time t) were determined using linear-trapezoidal integration and first order extrapolation from terminal points of the Cp/t curves, and clearance (CL) was calculated using Dose/AUCinf.

A short description of series [2]: IV clearance, 1 mg/kg IV, dog. It counts as in vivo. Particulars: for clearance: male, Beagle, plasma, 1 mg/kg IV; for in vivo/in vitro correction factor: microsomal CLh divided by IV CL. The method, then: as §1
An IV dose formulation for delivery of a 1 mg/kg in 1 mL/kg dose volume was prepared as follow. The vehicle for the formulation was 20% Trappsol® (hydroxypropyl Beta cyclodextrin; CDT, Inc.) (aq) in water. A final volume of the vehicle was added to each of Compound 1, Compound 2, and Compound 3 (as dry compounds) and the mixture was stirred until a homogeneous solution was obtained. The pH of the final solution was 7. The solution was filtered using a 0.2 μM filter before delivering to the animal.
Male Beagle dogs received a single intravenous dose following an overnight fast. Blood/plasma was collected (1.5 mL/timepoint) in K2EDTA blood collection tubes at the following time points post-dose: 0, 1, 5, 15, and 30 minutes, and 1, 2, 4, 8, 12, 24, and 48 hours, and mixed thoroughly. Blood samples were collected from the jugular, cephalic or saphenous veins from conscious animals. Blood samples were kept on ice until processed for plasma. Blood samples were centrifuged at 3200 RPM for 10 minutes at approximately 5° C. Plasma samples were directly transferred to 96-well plate tubes (MatrixTech, 0.75 mL). Rubber injectable caps were placed on the 96-well plate tubes. Plasma samples were stored at −20±5° C. until analyzed.
A single 12-point calibration curve was prepared by first serially diluting (3-fold) a 40-μg/mL stock solution of Compound 1, Compound 2, and Compound 3 in DMSO to provide standard solutions. Plasma (20 μL) was then added to the extraction plate, and 2.5 μL of each standard solution was added to the naïve plasma. A stock solution of an internal standard (10.0 μL of 2.5 μg/mL in acetonitrile) subsequently was added to each standard and sample solution. Proteinaceous material was precipitated from 20 μL of plasma with the addition of 317.5 μL of acetonitrile for a total volume of 350 μL. Samples were vortex-mixed for 5 minutes and spun in an Allegra X-12R centrifuge (Beckman Coulter, Fullerton, Calif.) for 15 minutes at approximately 1,500×g at 4° C. A 100-μL aliquot of each supernatant was transferred via a 550 μL Personal Pipettor (Apricot Designs, Monrovia, Calif.) to 96-well plates and diluted 1:1 with HPLC grade water. The resulting plates were sealed with plate mats and the amount of Compound 1 n plasma was analyzed by LC-MS/MS.
The LC-MS/MS system was comprised of an HTC-PAL autosampler (Leap Technologies, Inc., Carrboro, N.C.), an HP1100 HPLC (Agilent Technologies Inc., Santa Clara, Calif.), and an API4000 triple quadrupole mass spectrometer (Applied Biosystems, Foster City, Calif.). Chromatographic retention of the analyte and internal standard was achieved using a Phenomenex® Synergi 4μ Hydro-RP 80A column (2.1×30 mm, 4 μm particle size; Phenomenex, Torrance, Calif.) in conjunction with gradient conditions using mobile phases A (10 mM ammonium acetate in aqueous 0.1% formic acid and 1% isopropyl alcohol) and B (10 mM ammonium acetate in 89.9% acetonitrile, 10% methanol, 0.1% formic acid). The total run time, including re-equilibration time, for a single injection was 3.5 minutes and the flow rate was 0.8 mL/minute. Solvent B was increased from 5 to 95% in 1.0 minute, held at 95% for 1.0 minute, and then decreased to 5% in 0.1 minute. […]

In series [3] the target is T1, His-tagged recombinant human TrkA (Homo sapiens, UniProt P04629).
T1 construct: 6HIS tagged cytoplasmic domain from Invitrogen, Catalog No. PV3144; purchased Invitrogen PV3144
The series is described as follows: TrkA LanthaScreen Eu Kinase Binding Assay (Example A). Particulars: assay of Example A; 60-minute incubation at 22° C.; read-out: averaged IC50 value, TrkA binding. The method, then:
TrkA binding activity was determined in a TrkA LanthaScreen™ Eu Kinase Binding Assay. 5 nM His-tagged recombinant human TrkA (6HIS tagged cytoplasmic domain from Invitrogen, Catalog No. PV3144) was incubated with 4 nM Alexa-Fluor® Tracer 236 (Invitrogen Catalog No. PV5592), 2 nM biotinylated anti-His (Invitrogen Cat. No. PV6090), and 2 nM europium-labeled Streptavidin (Invitrogen Cat. No. PV5899), in buffer (25 mM MOPS, pH 7.5, 5 mM MgCl2, 0.005% Triton X-100). Three fold serial dilutions of Compound 1, compound 2 or compound 3 in DMSO were added to a final percentage of 2% DMSO. After 60-minute incubation at 22° C., the reaction was measured using the EnVision mutlimode plate reader (PerkinElmer) via TR-FRET dual wavelength detection at […]. The percent of control was calculated using a ratiometric emission factor. The IC50 value was determined by fitting a four parameter model to the percent of control data.
A general note: Time-resolved FRET reads energy transfer from a long-lived donor to a nearby acceptor.

T1 sequence (P04629 440-796 limits assumed): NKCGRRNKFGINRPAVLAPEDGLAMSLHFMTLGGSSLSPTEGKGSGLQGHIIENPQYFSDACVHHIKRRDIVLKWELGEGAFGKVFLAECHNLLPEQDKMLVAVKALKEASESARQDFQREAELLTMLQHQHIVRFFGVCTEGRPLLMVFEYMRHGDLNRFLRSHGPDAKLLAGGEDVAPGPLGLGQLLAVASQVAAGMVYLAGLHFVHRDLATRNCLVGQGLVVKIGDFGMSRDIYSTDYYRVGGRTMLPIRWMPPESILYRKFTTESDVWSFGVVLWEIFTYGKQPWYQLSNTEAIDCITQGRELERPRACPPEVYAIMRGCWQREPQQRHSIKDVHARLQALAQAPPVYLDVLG

On to `COCCN1C[C@@H](NC(=O)Nc2c(C)c(-c3cnn(C)c3)nn2-c2ccccc2)[C@H](c2ccc(F)cc2)C1` [Compound 3, 1-(1′,4-dimethyl-1-phenyl-1H,1′H-[3,4′-bipyrazol]-5-yl)-3-((3S,4R)-4-(4-fluorophenyl)-1-(2-methoxyethyl)pyrrolidin-3-yl)urea], for which, in series [1], the “in vivo/in vitro correction factor” value is recorded as 0.84 and the clearance is 38 mL/min/kg. In series [2], the clearance was 18 mL/min/kg and the “in vivo/in vitro correction factor” value was found to be 1.28. Moreover, the IC50 in series [3] amounted to 1.7 nM.

For `COCCN1C[C@@H](NC(=O)Nc2c(C)c(-c3cnc(C)nc3)nn2-c2ccccc2)[C@H](c2cccc(F)c2)C1` [Compound 1, 1-((3S,4R)-4-(3-fluorophenyl)-1-(2-methoxyethyl)pyrrolidin-3-yl)-3-(4-methyl-3-(2-methylpyrimidin-5-yl)-1-phenyl-1H-pyrazol-5-yl)urea], in series [1], the “in vivo/in vitro correction factor” value is on record as 1.65 and the clearance is 20 mL/min/kg. In addition, in series [2], the clearance stood at 7.6 mL/min/kg and the “in vivo/in vitro correction factor” value was determined as 3.16. Besides, in series [3], the IC50 was 1.1 nM.

`COCCN1C[C@@H](NC(=O)Nc2c(C)c(-c3cnc(C)nc3)nn2-c2ccccc2)[C@H](c2ccc(F)c(F)c2)C1` [Compound 2, 1-((3S,4R)-4-(3,4-difluorophenyl)-1-(2-methoxyethyl)pyrrolidin-3-yl)-3-(4-methyl-3-(2-methylpyrimidin-5-yl)-1-phenyl-1H-pyrazol-5-yl)urea]: in series [1], the “in vivo/in vitro correction factor” value is reported as 2.11 and the clearance amounted to 18 mL/min/kg. In addition, in series [2], the clearance was determined as 25 mL/min/kg and the “in vivo/in vitro correction factor” value is given as 1.04. In addition, the IC50 in series [3] worked out at 1.5 nM.

One may read the clearance as the volume of plasma or blood freed of the substance per unit of time. The IC50 is the concentration that inhibits the measured activity by half.
